Among the data in PubChem BioAssay AID192 (DTP/NCI, 2004) are T/C values, retold here.

The subject of this assay is BDF1 mice, B16 melanoma ip, median survival T/C. As to the kind of experiment: NCI In Vivo Anticancer Drug Screen. Data for tumor model B16 Melanoma (intraperitoneal) in B6D2F1 (BDF1) mice. The settings on record: endpoint: median survival time, higher = longer survival. The procedure, abridged: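 Transplantable tumor model; survival or tumor size measured; reported as T/C, treated over vehicle control.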

The mark [1] stands for this setting: dose: 12.5 mg/kg/injection, schedule: Q01DX009 (ip), vehicle: saline with Tween-80.
[2] abbreviates: dose: 25.0 mg/kg/injection, schedule: Q01DX009 (ip), vehicle: saline with Tween-80.
Setting [3] is: dose: 100.0 mg/kg/injection, schedule: Q01DX009 (ip), vehicle: saline with Tween-80.
Where [4] appears, read: dose: 200.0 mg/kg/injection, schedule: Q01DX009 (ip), vehicle: saline with Tween-80.
Where [5] appears, read: dose: 400.0 mg/kg/injection, schedule: Q01DX009 (ip), vehicle: saline with Tween-80.
The mark [6] stands for this setting: dose: 50.0 mg/kg/injection, schedule: Q01DX009 (ip), vehicle: saline with Tween-80.
Where [7] appears, read: dose: 50.0 mg/kg/injection, schedule: Q04DX003 (ip), vehicle: saline with Tween-80.
[8] abbreviates: dose: 50.0 mg/kg/injection, schedule: Q01DX009 (ip), vehicle: Klucel (hydroxypropylcellulose) (HPC).
[9] abbreviates: dose: 12.5 mg/kg/injection, schedule: Q01DX009 (ip), vehicle: Klucel (hydroxypropylcellulose) (HPC).
Setting [10] is: dose: 25.0 mg/kg/injection, schedule: Q01DX009 (ip), vehicle: Klucel (hydroxypropylcellulose) (HPC).
Setting [11] is: dose: 100.0 mg/kg/injection, schedule: Q01DX009 (ip), vehicle: Klucel (hydroxypropylcellulose) (HPC).
[12] abbreviates: dose: 200.0 mg/kg/injection, schedule: Q01DX009 (ip), vehicle: Klucel (hydroxypropylcellulose) (HPC).
[13] abbreviates: dose: 0.75 mg/kg/injection, schedule: Q01DX009 (ip), vehicle: saline.
[14] abbreviates: dose: 1.5 mg/kg/injection, schedule: Q01DX009 (ip), vehicle: saline.
Setting [15] is: dose: 3.0 mg/kg/injection, schedule: Q01DX009 (ip), vehicle: saline.
The mark [16] stands for this setting: dose: 400.0 mg/kg/injection, schedule: Q01DX009 (ip), vehicle: Klucel (hydroxypropylcellulose) (HPC).
Setting [17] is: dose: 25.0 mg/kg/injection, schedule: Q01DX009 (ip), vehicle: saline.
The mark [18] stands for this setting: dose: 50.0 mg/kg/injection, schedule: Q01DX009 (ip), vehicle: saline.

Each structure is given as a SMILES string. Inconclusive results and toxic doses are left out.

For the compound `CC(=O)Nc1ccc(S(=O)(=O)N/N=C\c2ccc(Cl)c(Cl)c2)cc1`, the T/C was 111 % of control (dose: 6.25 mg/kg/injection, schedule: Q01DX009 (ip), vehicle: saline with Tween-80); 105 % of control under setting [1]; 117 % of control under setting [2].
As for `CCN(C(=O)Nc1cccc(Cl)c1)c1ccccc1C`, the T/C was 100 % of control under setting [3], 100 % of control under setting [4] and 94 % of control under setting [5].
For `COc1ccc(C(=S)N2CCN(c3ccccc3)CC2)cc1`, the T/C was 87 % of control under setting [1], 99 % of control under setting [6] and 87 % of control under setting [4].
Turning to `CCCCCCCCCNC(=O)Nc1cccc(Cl)c1C`, the T/C reads like this: under setting [6], 99 % of control; under setting [3], 91 % of control.
With `CN(C)/N=C\c1ccccc1Cl`, the T/C reads like this: under setting [7], 104 % of control; (dose: 100.0 mg/kg/injection, schedule: Q04DX003 (ip), vehicle: saline with Tween-80) 102 % of control.
On to `CCC1(C)CC(=O)NC(=O)C1`, for which the T/C by setting is: (dose: 0.93 mg/kg/injection, schedule: Q01DX009 (ip), vehicle: saline) 110 % of control; (dose: 1.87 mg/kg/injection, schedule: Q01DX009 (ip), vehicle: saline) 97 % of control; (dose: 3.75 mg/kg/injection, schedule: Q01DX009 (ip), vehicle: saline) 110 % of control; (dose: 7.5 mg/kg/injection, schedule: Q01DX009 (ip), vehicle: saline) 107 % of control; (dose: 15.0 mg/kg/injection, schedule: Q01DX009 (ip), vehicle: saline) 107 % of control.
Consider `O=C(CBr)c1ccc(-c2ccccc2)cc1`, for which the T/C by setting is: (dose: 12.5 mg/kg/injection, schedule: Q04DX003 (ip), vehicle: Klucel (hydroxypropylcellulose) (HPC)) 88 % of control; (dose: 25.0 mg/kg/injection, schedule: Q04DX003 (ip), vehicle: Klucel (hydroxypropylcellulose) (HPC)) 102 % of control; under setting [8], 93 % of control; (dose: 50.0 mg/kg/injection, schedule: Q04DX003 (ip), vehicle: Klucel (hydroxypropylcellulose) (HPC)) 94 % of control.
Consider `c1cc2c(c(CC3CO3)c1CC1CO1)OCCOCCOCCOCCO2` (stereo not given), for which the T/C reads like this: (dose: 50.0 mg/kg/injection, schedule: Q01DX009 (ip), vehicle: saline + Tween-80 + alcohol) 109 % of control; (dose: 100.0 mg/kg/injection, schedule: Q01DX009 (ip), vehicle: saline + Tween-80 + alcohol) 118 % of control.
On to `COC(=O)[C@H]1[C@H]2C[C@@H]3c4[nH]c5ccccc5c4CCN3C[C@H]2C[C@@H](OC(=O)c2cc(OC)c(OC)c(OC)c2)[C@@H]1OC`, for which the T/C is 90 % of control (dose: 3.0 micrograms/kg/injection, schedule: Q01DX009 (ip), vehicle: saline); 98 % of control (dose: 6.0 micrograms/kg/injection, schedule: Q01DX009 (ip), vehicle: saline); 95 % of control (dose: 13.0 micrograms/kg/injection, schedule: Q01DX009 (ip), vehicle: saline); 95 % of control (dose: 27.0 micrograms/kg/injection, schedule: Q01DX009 (ip), vehicle: saline); 86 % of control (dose: 55.0 micrograms/kg/injection, schedule: Q01DX009 (ip), vehicle: saline).
For `O=C(O)C(O)C(=O)O.[NH-]C1CCCCC1[NH-].[Pt+2]`, the T/C is 161 % of control (dose: 20.0 mg/kg/injection, schedule: Q01DX009 (ip), vehicle: other) and 150 % of control (dose: 40.0 mg/kg/injection, schedule: Q01DX009 (ip), vehicle: other).
As for `CS(=O)(=O)OCCN1CCC2(CC1)SSC1(CCN(CCOS(C)(=O)=O)CC1)S2`, the T/C is 106 % of control (dose: 3.13 mg/kg/injection, schedule: Q01DX009 (ip), vehicle: saline) and 106 % of control (dose: 6.25 mg/kg/injection, schedule: Q01DX009 (ip), vehicle: saline).
`Clc1ccc2c(Cl)ncnc2c1`: the T/C was 100 % of control under setting [9]; 100 % of control under setting [10]; 102 % of control under setting [8]; 100 % of control under setting [11]; 90 % of control under setting [12].
On to `O=C1C(F)=C(N2CC2)C(=O)C(N2CCOCC2)=C1N1CC1`, for which the T/C reads like this: under setting [13], 118 % of control; under setting [14], 108 % of control; under setting [15], 100 % of control.
Take `O=C1C=CC(=O)C2=C1C1c3ccccc3C2([N+](=O)[O-])c2ccccc21`: the T/C is 97 % of control under setting [11], 97 % of control under setting [12] and 100 % of control under setting [16].
Consider `CO[C@H](/C(C)=C/C=C/C(C)=C/c1coc(C)n1)[C@H](C)[C@H]1C[C@@H](O)[C@@]2(C)O[C@H]2/C=C/[C@@H](C)[C@@H]2C[C@@H](CC(=O)O2)C[C@H]2O[C@@H]2C(=O)O1`, for which the T/C (dose: 0.4 mg/kg/injection, schedule: Q01DX009 (ip), vehicle: Klucel (hydroxypropylcellulose) (HPC)) was 153 % of control and the T/C (dose: 0.5 mg/kg/injection, schedule: Q01DX009 (sc), vehicle: Klucel (hydroxypropylcellulose) (HPC)) was 181 % of control.
Regarding `CC(C)NNC(=O)C(C)O` (stereo not given), the T/C is, setting by setting: under setting [17], 118 % of control; under setting [18], 102 % of control; (dose: 200.0 mg/kg/injection, schedule: Q01DX009 (ip), vehicle: saline) 102 % of control.
In the case of `N=C(N)CCNC(=O)C1CCC(N)=N1` (stereo not given), the T/C was 96 % of control under setting [13]; 88 % of control under setting [14]; 93 % of control under setting [15]; 99 % of control (dose: 6.0 mg/kg/injection, schedule: Q01DX009 (ip), vehicle: saline).
For `Cc1nc2[nH]c(=O)[nH]c(=O)c2[nH]1`, the T/C was 111 % of control under setting [1]; 105 % of control (dose: 12.5 mg/kg/injection, schedule: Q04DX003 (ip), vehicle: saline with Tween-80); 100 % of control under setting [2]; 108 % of control (dose: 25.0 mg/kg/injection, schedule: Q04DX003 (ip), vehicle: saline with Tween-80); 102 % of control under setting [6]; 105 % of control under setting [7].
With `O=C(Cl)c1ccc(OC(Cl)(Cl)Cl)cc1`, the T/C runs as follows: under setting [11], 100 % of control; under setting [12], 93 % of control; under setting [16], 86 % of control.
`COC(=O)C(Br)C(Br)c1ccccc1` (stereo not given): the T/C runs as follows: under setting [3], 90 % of control; under setting [4], 90 % of control; under setting [5], 90 % of control.
Regarding `C=C1C(=O)O[C@@H]2C[C@@H](C)[C@@H]3[C@@H](OC4OC(COC(C)=O)C(O)C(O)C4O)CC(=O)[C@@]3(C)C[C@H]12` (stereo not given in full), the T/C (dose: 6.4 mg/kg/injection, schedule: Q01DX009 (ip), vehicle: saline) is 95 % of control; the T/C (dose: 9.6 mg/kg/injection, schedule: Q01DX009 (ip), vehicle: saline) is 100 % of control; the T/C (dose: 14.0 mg/kg/injection, schedule: Q01DX009 (ip), vehicle: saline) is 100 % of control; the T/C (dose: 22.0 mg/kg/injection, schedule: Q01DX009 (ip), vehicle: saline) was 100 % of control.
Regarding `[Br][Ga]([Br])[Br]`, the T/C is, setting by setting: (dose: 12.5 mg/kg/injection, schedule: Q01DX009 (ip), vehicle: saline) 101 % of control; under setting [17], 96 % of control; under setting [18], 96 % of control.
Turning to `COc1ccc(C(OC2OC(n3cnc4c(=S)nc(N)[nH]c43)CC2OC(C)=O)(c2ccccc2)c2ccc(OC)cc2)cc1` (stereo not given), the T/C by setting is: under setting [11], 90 % of control; under setting [12], 96 % of control; under setting [16], 93 % of control.
For the compound `ClCCN(CCCl)c1ccc(/C=C/c2ccccc2)cc1`, the T/C was 98 % of control (dose: 6.25 mg/kg/injection, schedule: Q01DX009 (ip), vehicle: Klucel (hydroxypropylcellulose) (HPC)); 96 % of control under setting [9]; 96 % of control under setting [10]; 90 % of control under setting [8]; 101 % of control under setting [11].
